One series deals with Gram-positive bacteria. As to conditions: background statement; cited from earlier work.
Series [1] is described as follows: Solubility observed on preparing formulations. Format: physicochemical. To be noted: pH 5.5 versus pH 5.0.
The conditions of series [2]: 21 °C and standard pressure; cited from earlier work.

Counter-ions that a name gives are not always drawn.

For `CN[C@H]1C(=O)N[C@@H]2Cc3ccc(cc3)Oc3cc4cc(c3O[C@@H]3O[C@H](C(=O)O)[C@@H](O)[C@H](O)[C@H]3NC(=O)CCCCCCCCC(C)C)Oc3ccc(cc3Cl)[C@@H](O)[C@@H]3NC(=O)[C@H](NC(=O)[C@@H]4NC(=O)[C@@H](NC2=O)c2cc(cc(O)c2Cl)Oc2cc1ccc2O)c1ccc(O)c(c1)-c1c(O[C@H]2O[C@H](CO)[C@@H](O)[C@H](O)[C@@H]2O)cc(O)cc1[C@@H](C(=O)NCCCN(C)C)NC3=O` [Dalbavancin], in the series on Gram-positive bacteria, the Antibiotic activity entry is recorded as “strong antibiotic activity”.
Regarding `CN[C@H]1C(=O)N[C@@H]2Cc3ccc(cc3)Oc3cc4cc(c3O[C@@H]3O[C@H](C(=O)O)[C@@H](O)[C@H](O)[C@H]3NC(=O)CCCCCCCCC(C)C)Oc3ccc(cc3Cl)[C@@H](O)[C@@H]3NC(=O)[C@H](NC(=O)[C@@H]4NC(=O)[C@@H](NC2=O)c2cc(cc(O)c2Cl)Oc2cc1ccc2O)c1ccc(O)c(c1)-c1c(O[C@H]2O[C@H](CO)[C@@H](O)[C@H](O)[C@@H]2O)cc(O)cc1[C@@H](C(=O)NCCCN(C)C)NC3=O` [dalbavancin hydrochloride], the Solubility result in series [1] is “reduced solubility”.
As to `CC(O)C(=O)O` (stereo not drawn) [lactic acid], the pKa (usually the pH at which an ionisable group is half protonated) in series [2] is reported as 3.7.
